What is called IC50 is the concentration needed to halve the response being measured.

The source of these data is patent US11274092B2, “Potassium channel inhibitors” (ACESION PHARMA ApS, priority 2016, dated 2022).

The assay deals with T1, human SK3 channel (hKCa2.3) (Homo sapiens, UniProt Q9UGI6).
T1 construct: expressed in transfected cells
Description: Automated whole cell patch-clamp (QPatch 16 HT), inhibition of SK3 current. Format: cell-based. Particulars: HEK-293 cells stably expressing hKCa2.3; symmetrical K+ solutions, free calcium 400 nM; effects normalized to N-methyl bicuculline. Here is the method:
Automated whole cell patch-clamp recordings were performed using a QPatch 16 HT system and single-hole Qplates (Biolin Scientific, Sophion, Denmark) on HEK-293 cells stably expressing the human SK3 channel (hKCa2.3). Cells were cultured and prepared for experiments using normal cell culturing procedures. A total of 4-5 million cells were used per experiment. The Qpatch automatically generates giga sealing, whole-cell formation, compound application and recording of current. hKCa2.3 currents were recorded in symmetrical K^+ solutions, with an intracellular solution consisting of in mM: KCl 108; KOH/EGTA (ethylene glycol-bis(2-aminoethylether)-N,N,N′,N′-tetraacetic acid) 31.25/10; CaCl2) 8.1; MgCl2 1.2; HEPES (2-[4-(2-hydroxyethyl)piperazin-1-yl]ethanesulfonic acid) 10; KOH 15, pH adjusted to pH=7.2 with HCl. The free calcium concentration was calculated to 400 nM. The extracellular solution consisted of in mM: KCl 150; CaCl2) 0.1; MgCl2 3; HEPES 10; Glucose 10, pH=7.4 with KOH. The cells were held at 0 mV and hKCa2.3 currents were elicited by a linear voltage ramp from […] (200 ms in duration) applied every 5th second. The compound application protocol consisted of 12 recording periods lasting from 50-200 s: 1) Baseline recordings in extracellular solution; 2) Application of the positive control N-methyl bicuculline (100 μM), which is characterized by full efficacy, fast on- and off-rate; 3-4) Wash-out; 5-9) Increasing concentrations of test compound to establish an IC50 value; 10-11) Wash-out; 12) positive control with compound NS8593 (N-[(1R)-1,2,3,4-tetrahydro-1-naphthalenyl]-1H-benzimidazol-2-amine) (1 μM). Data were sampled at 10 kHz, 4th order Bessel filter, cut-off frequency 3 kHz. Currents were compensated for run-down. Potency was quantified as the concentration needed to inhibit half of the SK channel activity and reported as an IC50 value. All effects of compounds of the present invention as tested were normalized to the observed inhibitory effect of N-methyl bicuculline.
On to `O=C(CC(Nc1nc2ccccc2[nH]1)c1cccc(C(F)(F)F)c1)NCCOC(F)(F)F` (single isomer, unassigned) [Example 67a, 3-[(1H-1,3-benzodiazol-2-yl)amino]-N-[2-(trifluoromethoxy)ethyl]-3-[3-(trifluoromethyl)phenyl]propanamide], for which the IC50 was less than 10 µM.
As for `O=C(CC(Nc1nc2ccccc2[nH]1)c1cccc(C(F)(F)F)c1)NCCOCC(F)(F)F` (single isomer, unassigned) [Example 68a, 3-[(1H-1,3-benzodiazol-2-yl)amino]-N-[2-(2,2,2-trifluoroethoxy)ethyl]-3-[3-(trifluoromethyl)phenyl]propanamide], the IC50 is less than 10 µM.
On to `COC[C@H](NC(=O)CC(Nc1nc2ccccc2[nH]1)c1cccc(C(F)(F)F)c1)c1ccccc1` (single isomer, unassigned) [Example 69a], for which the half-inhibitory concentration (IC50) is less than 10 µM.
As for `COC[C@H](NC(=O)CC(Nc1nc2ccccc2[nH]1)c1cccc(SC(F)(F)F)c1)c1ccccc1` (single isomer, unassigned) [Example 70a], the figure is less than 10 µM.
As for `O=C(C(Nc1nc2ccccc2[nH]1)c1cccc(C(F)(F)F)c1)N1CCC1` (single isomer, unassigned; (+)) [Example 34a, (+)1-(azetidin-1-yl)-2-[(1H-1,3-benzodiazol-2-yl)amino]-2-[3-(trifluoromethyl)phenyl]ethan-1-one], the figure is less than 10 µM.
`CCN(CCO)C(=O)C(Nc1nc2ccccc2[nH]1)c1cccc(C(F)(F)F)c1` (single isomer, unassigned; (+)) [Example 38b, (+)2-[(1H-1,3-benzodiazol-2-yl)amino]-N-ethyl-N-(2-hydroxyethyl)-2-[3-(trifluoromethyl)phenyl]acetamide]: the IC50 lay in the range of 10 to 100 µM.
Turning to `CCN(CCO)C(=O)CC(Nc1nc2ccccc2[nH]1)c1ccc(Cl)c(C)c1` (single isomer, unassigned; (+)) [Example 40b, (+)3-[(1H-1,3-benzodiazol-2-yl)amino]-3-(4-chloro-3-methylphenyl)-N-ethyl-N-(2-hydroxyethyl)propanamide], the IC50 was 10 to 100 µM.
Take `CC(C)(O)CNC(=O)CC(Nc1nc2ccccc2[nH]1)c1cccc(C(F)(F)F)c1` (single isomer, unassigned; (-)) [Example 4a, (−) 3-[(1H-1,3-benzodiazol-2-yl)amino]-N-(2-hydroxy-2-methylpropyl)-3-[3-(trifluoromethyl)phenyl]propanamide]: the 50% inhibitory concentration (IC50) is 10 to 100 µM.
Under `CN(CCCO)C(=O)CC(Nc1nc2ccccc2[nH]1)c1cccc(C(F)(F)F)c1` (single isomer, unassigned; (-)) [Example 17a, (−) 3-[(1H-1,3-benzodiazol-2-yl)amino]-N-(3-hydroxypropyl)-N-methyl-3-[3-(trifluoromethyl)phenyl]propanamide] stands less than 10 µM; under `CN1CCN(C(=O)C(Nc2nc3ccccc3[nH]2)c2cccc(C(F)(F)F)c2)CC1` (single isomer, unassigned; (-)) [Example 27a, (−)2-[(1H-1,3-benzodiazol-2-yl)amino]-1-(4-methylpiperazin-1-yl)-2-[3-(trifluoromethyl)phenyl]ethan-1-one], 10 to 100 µM; under `CCN(CCO)C(=O)C(Nc1nc2ccccc2[nH]1)c1cccc(C(F)(F)F)c1` (single isomer, unassigned; (-)) [Example 38a, (−)2-[(1H-1,3-benzodiazol-2-yl)amino]-N-ethyl-N-(2-hydroxyethyl)-2-[3-(trifluoromethyl)phenyl]acetamide], less than 10 µM.
Regarding `CCN(CCO)C(=O)CC(Nc1nc2ccccc2[nH]1)c1ccc(F)c(C)c1` (single isomer, unassigned; (-)) [Example 39a, (−)3-[(1H-1,3-benzodiazol-2-yl)amino]-N-ethyl-3-(4-fluoro-3-methylphenyl)-N-(2-hydroxyethyl)propanamide], the IC50 is less than 10 µM.
Consider `CCN(CCO)C(=O)CC(Nc1nc2ccccc2[nH]1)c1ccc(Cl)c(C)c1` (single isomer, unassigned; (-)) [Example 40a, (−)3-[(1H-1,3-benzodiazol-2-yl)amino]-3-(4-chloro-3-methylphenyl)-N-ethyl-N-(2-hydroxyethyl)propanamide], for which the IC50 was less than 10 µM.
Regarding `CCN(CCO)C(=O)CC(Nc1nc2ccccc2[nH]1)c1cccc(C(F)(F)F)c1` (single isomer, unassigned; (-)) [Example 41a, (−)3-[(1H-1,3-benzodiazol-2-yl)amino]-N-ethyl-N-(2-hydroxyethyl)-3-[3-(trifluoromethyl)phenyl]propanamide], the IC50 is less than 10 µM.
Under `COCCNC(=O)CC(Nc1nc2ccccc2[nH]1)c1cccc(C(F)(F)F)c1` (single isomer, unassigned; (-)) [Example 42a, (−)3-[(1H-1,3-benzodiazol-2-yl)amino]-N-(2-methoxyethyl)-3-[3-(trifluoromethyl)phenyl]propanamide] stands less than 10 µM; under `CN(CC#N)C(=O)CC(Nc1nc2ccccc2[nH]1)c1cccc(C(F)(F)F)c1` (single isomer, unassigned; (-)) [Example 56a, (−)3-[(1H-1,3-benzodiazol-2-yl)amino]-N-(cyanomethyl)-N-methyl-3-[3-(trifluoromethyl)phenyl]propanamide], less than 10 µM; under `COC(=O)CN(C)C(=O)CC(Nc1nc2ccccc2[nH]1)c1cccc(C(F)(F)F)c1` (single isomer, unassigned; (-)) [Example 57a, (−)Methyl 2-{3-[(1H-1,3-benzodiazol-2-yl)amino]-N-methyl-3-[3-(trifluoromethyl)phenyl]propanamido}acetate], less than 10 µM.
As for `COC(=O)CNC(=O)CC(Nc1nc2ccccc2[nH]1)c1cccc(C(F)(F)F)c1` (single isomer, unassigned; (-)) [Example 59a, (−)Methyl 2-{3-[(1H-1,3-benzodiazol-2-yl)amino]-3-[3-(trifluoromethyl)phenyl]propanamido}acetate], the figure is less than 10 µM; as for `CCc1cc(C(CC(=O)N(CC)CCO)Nc2nc3ccccc3[nH]2)ccc1F` (single isomer, unassigned; (-)) [Example 65a, (−)3-[(1H-1,3-benzodiazol-2-yl)amino]-N-ethyl-3-(3-ethyl-4-fluorophenyl)-N-(2-hydroxyethyl)propanamide], less than 10 µM.
Take `CSCCNC(=O)CC(Nc1nc2ccccc2[nH]1)c1cccc(C(F)(F)F)c1` (stereo not drawn) [Example 1, 3-[(1H-1,3-benzodiazol-2-yl)amino]-N-[2-(methylsulfanyl)ethyl]-3-[3-(trifluoromethyl)phenyl]propanamide]: the IC50 was less than 10 µM.
As for `CN(C)CCN(C)C(=O)CC(Nc1nc2ccccc2[nH]1)c1cccc(C(F)(F)F)c1` (stereo not drawn) [Example 2, 3-[(1H-1,3-benzodiazol-2-yl)amino]-N-[2-(dimethylamino)ethyl]-N-methyl-3-[3-(trifluoromethyl)phenyl]propanamide], the figure is 10 to 100 µM.
As for `CCS(=O)(=O)NCCNC(=O)CC(Nc1nc2ccccc2[nH]1)c1cccc(C(F)(F)F)c1` (stereo not drawn) [Example 3, 3-[(1H-1,3-benzodiazol-2-yl)amino]-N-(2-ethanesulfonamidoethyl)-3-[3-(trifluoromethyl)phenyl]propanamide], the figure is 10 to 100 µM; as for `O=C(CC(Nc1nc2ccccc2[nH]1)c1cccc(C(F)(F)F)c1)N1CCC(O)CC1` (stereo not drawn) [Example 5, 3-[(1H-1,3-benzodiazol-2-yl)amino]-1-(4-hydroxypiperidin-1-yl)-3-[3-(trifluoromethyl)phenyl]propan-1-one], 10 to 100 µM; as for `O=C(CC(Nc1nc2ccccc2[nH]1)c1cccc(C(F)(F)F)c1)N1CC(O)C1` (stereo not drawn) [Example 6, 3-[(1H-1,3-benzodiazol-2-yl)amino]-1-(3-hydroxyazetidin-1-yl)-3-[3-(trifluoromethyl)phenyl]propan-1-one], less than 10 µM.
For `O=C(CC(Nc1nc2ccccc2[nH]1)c1cccc(C(F)(F)F)c1)NCC1COC1` (stereo not drawn) [Example 7, 3-[(1H-1,3-benzodiazol-2-yl)amino]-N-(oxetan-3-ylmethyl)-3-[3-(trifluoromethyl)phenyl]propanamide], the IC50 lay within 10 to 100 µM.
With `O=C(CC(Nc1nc2ccccc2[nH]1)c1cccc(C(F)(F)F)c1)NCC1CCCO1` (stereo not drawn) [Example 8, 3-[(1H-1,3-benzodiazol-2-yl)amino]-N-(oxolan-2-ylmethyl)-3-[3-(trifluoromethyl)phenyl]propanamide], the 50% inhibitory concentration (IC50) is less than 10 µM.
As for `O=C(CC(Nc1nc2ccccc2[nH]1)c1cccc(C(F)(F)F)c1)N[C@H]1CCOC1` (stereo partly drawn) [Example 9, 3-[(1H-1,3-benzodiazol-2-yl)amino]-N-[(3S)-oxolan-3-yl]-3-[3-(trifluoromethyl)phenyl]propanamide], the IC50 is less than 10 µM.
